Results from patent US10239873B2, “7-azaindole or 4,7-diazaindole derivatives as IKKϵ epsilon and TBK1 inhibitor and pharmaceutical composition comprising same” (GREEN CROSS CORPORATION, priority 2015, dated 2019).

Target: T1, TBK1 (Homo sapiens, UniProt Q9UHD2)
T1 construct: purchased Promega (Invitrogen is also named in the same bracket) V4158; PR8031B; V3991 (not assigned to the two kinases)
T1 sequence (Q9UHD2 1-729): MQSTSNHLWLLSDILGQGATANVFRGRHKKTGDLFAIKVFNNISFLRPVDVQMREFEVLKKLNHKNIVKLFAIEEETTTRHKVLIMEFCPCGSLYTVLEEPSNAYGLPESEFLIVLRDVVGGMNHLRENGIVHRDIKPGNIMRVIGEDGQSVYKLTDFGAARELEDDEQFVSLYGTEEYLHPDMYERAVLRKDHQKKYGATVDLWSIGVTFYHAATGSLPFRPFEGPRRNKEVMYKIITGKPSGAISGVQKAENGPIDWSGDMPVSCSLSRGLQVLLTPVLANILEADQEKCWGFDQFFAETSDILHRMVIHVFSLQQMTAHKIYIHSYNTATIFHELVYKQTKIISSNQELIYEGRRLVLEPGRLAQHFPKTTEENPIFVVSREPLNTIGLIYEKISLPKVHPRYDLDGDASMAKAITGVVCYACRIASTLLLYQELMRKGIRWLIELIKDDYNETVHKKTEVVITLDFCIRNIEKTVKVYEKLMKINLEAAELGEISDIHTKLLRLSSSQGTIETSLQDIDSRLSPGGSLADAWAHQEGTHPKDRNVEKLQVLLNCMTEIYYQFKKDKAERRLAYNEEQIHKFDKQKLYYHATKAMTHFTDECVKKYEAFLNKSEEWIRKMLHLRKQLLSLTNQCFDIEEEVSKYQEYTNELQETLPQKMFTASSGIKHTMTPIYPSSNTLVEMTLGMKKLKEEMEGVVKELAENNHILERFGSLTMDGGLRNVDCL
Experiment: ADP-Glo Kinase Assay, inhibition activity on TBK1
Assay type: biochemical
Outline: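 Kinase activity measured with the ADP-Glo luminescent ADP-detection kit per manufacturer's protocol, using IKKε or TBK1 kinase enzyme systems. Reaction buffer: 40 mM Tris (pH 7.5), 20 mM MgCl2, 0.1 mg/mL BSA; luminescence read on a luminometer.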

Work on `CCS(=O)(=O)c1cccc(-c2cnc3[nH]cc(C4=CCN(C(=O)c5cccs5)CC4)c3c2)c1` [Example 195, (4-(5-(3-(ethylsulfonyl)phenyl)-1H-pyrrolo[2,3-b]pyridin-3-yl)-5,6-dihydropyridin-1(2H)-yl)(thiophen-2-yl)methanone] yielded an IC50 of 61 nM.
In the case of `CC(C)(C)OC(=O)N1CC=C(c2c[nH]c3ncc(-c4ccc(N5CCCCC5)cc4)cc23)CC1` [Example 159, tert-Butyl 4-(5-(4-(piperidin-1-yl)phenyl)-1H-pyrrolo[2,3-b]pyridin-3-yl)-5,6-dihydropyridine-1(2H)-carboxylate], the IC50 is reported as 600 nM.
`CNS(=O)(=O)c1ccc(-c2cnc3[nH]cc(C4=CCN(C(=O)OC(C)(C)C)CC4)c3c2)cc1` [Example 165, tert-Butyl 4-(5-(4-(N-methylsulfamoyl)phenyl)-1H-pyrrolo[2,3-b]pyridin-3-yl)-5,6-dihydropyridine-1(2H)-carboxylate] gave an IC50 of 28 nM.
`NS(=O)(=O)c1cccc(-c2cnc3[nH]cc(C4=CCN(C(=O)NC5CCCC5)CC4)c3c2)c1` [Example 57, N-cyclopentyl-4-(5-(3-sulfamoylphenyl)-1H-pyrrolo[2,3-b]pyridin-3-yl)-5,6-dihydropyridine-1(2H)-carboxamide] gave an IC50 of 31 nM.
`O=C(OC1CCCC1)N1CC=C(c2c[nH]c3ncc(-c4cccc(S(=O)(=O)N5CCOCC5)c4)cc23)CC1` [Example 180, Cyclopentyl 4-(5-(3-(morpholinosulfonyl)phenyl)-1H-pyrrolo[2,3-b]pyridin-3-yl)-5,6-dihydropyridine-1(2H)-carboxylate] showed an IC50 of 400 nM.
Molecule `NS(=O)(=O)c1ccc(-c2cnc3[nH]cc(C4=CCN(C(=O)NC5CCCC5)CC4)c3c2)cc1` [Example 58, N-cyclopentyl-4-(5-(4-sulfamoylphenyl)-1H-pyrrolo[2,3-b]pyridin-3-yl)-5,6-dihydropyridine-1(2H)-carboxamide] has an IC50 of 61 nM.
Molecule `O=C(NC1CCOC1)N1CC=C(c2c[nH]c3ncc(-c4ccc(CN5CCOCC5)s4)cc23)CC1` (stereo not shown) [Example 84, 4-(5-(5-(Morpholinomethyl)thiophen-2-yl)-1H-pyrrolo[2,3-b]pyridin-3-yl)-N-(tetrahydrofuran-3-yl)-5,6-dihydropyridine-1(2H)-carboxamide] has an IC50 of 16 nM.
Molecule `CC(C)(C)OC(=O)N1CC=C(c2c[nH]c3ncc(-c4ccc(S(N)(=O)=O)cc4)cc23)CC1` [Example 152, tert-Butyl 4-(5-(4-sulfamoylphenyl)-1H-pyrrolo[2,3-b]pyridin-3-yl)-5,6-dihydropyridine-1(2H)-carboxylate] has an IC50 of 81 nM.
Molecule `COc1ccc(-c2cnc3[nH]cc(C4=CCN(C(=O)OC5CCCC5)CC4)c3c2)cc1S(=O)(=O)N1CCOCC1` [Example 182, Cyclopentyl 4-(5-(4-methoxy-3-(morpholinosulfonyl)phenyl)-1H-pyrrolo[2,3-b]pyridin-3-yl)-5,6-dihydropyridine-1(2H)-carboxylate] has an IC50 of 180 nM.
For `Cc1[nH]c2ncc(-c3ccc(C(=O)N4CCOCC4)cc3)cc2c1C1=CCN(C(=O)NC2CCCC2)CC1` [Example 223, N-cyclopentyl-4-(2-methyl-5-(4-(morpholine-4-carbonyl)phenyl)-1H-pyrrolo[2,3-b]pyridin-3-yl)-5,6-dihydropyridine-1(2H)-carboxamide], the IC50 was 1600 nM.
`COc1ccc(-c2cnc3[nH]cc(C4=CCN(C(=O)OC(C)(C)C)CC4)c3c2)cc1OC` [Example 239, tert-butyl 4-(5-(3,4-dimethoxyphenyl)-1H-pyrrolo[2,3-b]pyridin-3-yl)-5,6-dihydropyridine-1(2H)-carboxylate] showed an IC50 of 300 nM.
In the case of `COc1ccc(-c2cnc3[nH]cc(-c4ccc(CC(=O)NC5CCCC5)cc4)c3c2)cc1OC` [Example 246, N-cyclopentyl-2-(4-(5-(3,4-dimethoxyphenyl)-1H-pyrrolo[2,3-b]pyridin-3-yl)phenyl)acetamide 2,2,2-trifluoroacetate], the IC50 is reported as 4100 nM.
With `COc1ccccc1-c1cnc2[nH]cc(C3=CCN(C(=O)OC(C)(C)C)CC3)c2c1` [Example 244, tert-butyl 4-(5-(2-methoxyphenyl)-1H-pyrrolo[2,3-b]pyridin-3-yl)-5,6-dihydropyridine-1(2H)-carboxylate] the IC50 was 1800 nM.
With `CNS(=O)(=O)c1cccc(-c2cnc3[nH]cc(C4=CCN(C(=O)OC(C)(C)C)CC4)c3c2)c1` [Example 163, tert-Butyl 4-(5-(3-(N-methylsulfamoyl)phenyl)-1H-pyrrolo[2,3-b]pyridin-3-yl)-5,6-dihydropyridine-1(2H)-carboxylate] the IC50 was 59 nM.
`O=C(NC1CCCC1)N1CC=C(c2c[nH]c3ncc(-c4ccc(CCN5CCOCC5)cc4)cc23)CC1` [Example 64, N-cyclopentyl-4-(5-(4-(2-morpholinoethyl)phenyl)-1H-pyrrolo[2,3-b]pyridin-3-yl)-5,6-dihydropyridine-1(2H)-carboxamide] was tested, and the IC50 was 110 nM.
With `O=C(NC1CCCC1)N1CC=C(c2c[nH]c3ncc(-c4csc(CN5CCOCC5)c4)cc23)CC1` [Example 73, N-cyclopentyl-4-(5-(5-(morpholinomethyl)thiophen-3-yl)-1H-pyrrolo[2,3-b]pyridin-3-yl)-5,6-dihydropyridine-1(2H)-carboxamide] the IC50 was 620 nM.
`CC1=C(c2c[nH]c3ncc(-c4ccc(S(C)(=O)=O)cc4)cc23)CCN(C(=O)NC2CCCC2)C1` [Example 130, N-cyclopentyl-3-methyl-4-(5-(4-(methylsulfonyl)phenyl)-1H-pyrrolo[2,3-b]pyridin-3-yl)-5,6-dihydropyridine-1(2H)-carboxamide] gave an IC50 of 550 nM.
Molecule `CS(=O)(=O)c1cccc(-c2cnc3[nH]cc(C4=CCN(C(=O)OC5CCCC5)CC4)c3c2)c1` [Example 172, Cyclopentyl 4-(5-(3-(methylsulfonyl)phenyl)-1H-pyrrolo[2,3-b]pyridin-3-yl)-5,6-dihydropyridine-1(2H)-carboxylate] has an IC50 of 55 nM.
In the case of `CC(=O)c1ccc(-c2cnc3[nH]cc(C4=CCN(C(=O)OC(C)(C)C)CC4)c3c2)cc1` [Example 166, tert-Butyl 4-(5-(4-acetylphenyl)-1H-pyrrolo[2,3-b]pyridin-3-yl)-5,6-dihydropyridine-1(2H)-carboxylate], the IC50 is reported as 950 nM.
For `CCC(C)NC(=O)N1CC=C(c2c[nH]c3ncc(-c4ccc(OC)c(OC)c4)cc23)CC1` (stereo not shown) [Example 44, N-(sec-butyl)-4-(5-(3,4-dimethoxyphenyl)-1H-pyrrolo[2,3-b]pyridin-3-yl)-5,6-dihydropyridine-1(2H)-carboxamide], the IC50 was 7.5 nM.
For `O=C(c1cccc(-c2cnc3[nH]cc(C4=CCN(C(=O)c5cccs5)CC4)c3c2)c1)N1CCOCC1` [Example 208, (4-(5-(3-(morpholine-4-carbonyl)phenyl)-1H-pyrrolo[2,3-b]pyridin-3-yl)-5,6-dihydropyridin-1(2H)-yl)(thiophen-2-yl)methanone], the IC50 was 190 nM.
`Cc1ccc(C(=O)N2CC=C(c3c[nH]c4ncc(-c5ccc(S(N)(=O)=O)cc5)cc34)CC2)s1` [Example 212, 4-(3-(1-(5-methylthiophene-2-carbonyl)-1,2,3,6-tetrahydropyridin-4-yl)-1H-pyrrolo[2,3-b]pyridin-5-yl)benzensulfonamide] showed an IC50 of 2600 nM.
In the case of `CNS(=O)(=O)c1cccc(-c2cnc3[nH]cc(C4=CCN(C(=O)OC5CCCC5)CC4)c3c2)c1` [Example 177, Cyclopentyl 4-(5-(3-(N-methylsulfamoyl)phenyl)-1H-pyrrolo[2,3-b]pyridin-3-yl)-5,6-dihydropyridine-1(2H)-carboxylate], the IC50 is reported as 97 nM.
`O=C(NC1CCCC1)N1CC=C(c2c[nH]c3ncc(-c4ccc(C(=O)N5CCOCC5)cc4)cc23)CC1` [Example 75, N-cyclopentyl-4-(5-(4-(morpholine-4-carbonyl)phenyl)-1H-pyrrolo[2,3-b]pyridin-3-yl)-5,6-dihydropyridine-1(2H)-carboxamide] was tested, and the IC50 was 25 nM.
Molecule `COc1ccc(-c2cnc3[nH]cc(C4=CCN(C(=O)c5cccs5)CC4C)c3c2)cc1OC` (stereo not shown) [Example 213, (4-(5-(3,4-dimethoxyphenyl)-1H-pyrrolo[2,3-b]pyridin-3-yl)-5-methyl-5,6-dihydropyridin-1(2H)-yl)(thiophen-2-yl)methanone] has an IC50 of 180 nM.
`CCCCCOC(=O)N1CC=C(c2c[nH]c3ncccc23)CC1` [Example 136, Pentyl 4-(1H-pyrrolo[2,3-b]pyridin-3-yl)-5,6-dihydropyridine-1(2H)-carboxylate] gave an IC50 of 10600 nM.
With `CCS(=O)(=O)c1cccc(-c2cnc3[nH]cc(C4=CCN(C(=O)OC5CCCC5)CC4)c3c2)c1` [Example 174, Cyclopentyl 4-(5-(3-(ethylsulfonyl)phenyl)-1H-pyrrolo[2,3-b]pyridin-3-yl)-5,6-dihydropyridine-1(2H)-carboxylate] the IC50 was 190 nM.
Molecule `CCOC(=O)N1CC=C(c2c[nH]c3ncccc23)CC1` [Example 135, Ethyl 4-(1H-pyrrolo[2,3-b]pyridin-3-yl)-5,6-dihydropyridine-1(2H)-carboxylate] has an IC50 of 1100 nM.
